How the values were obtained:
rat [1] = details: Fertility (Segment I), Oral, Gavage/Intubation, dose end: 1 generation
rat [2] = details: Fertility (Segment I), Oral, Gavage/Intubation, dose end: 1 generation, group: parental
rat [3] = details: Prenatal developmental toxicity study, sprague dawley, Oral, Gavage/Intubation, dose end: 18 GD
rabbit [4] = details: Prenatal developmental toxicity study, new zealand white, Oral, Gavage/Intubation, dose end: 19 GD, group: maternal
rabbit [5] = details: Sub-acute repeat dose toxicity, new zealand white, Oral, Gavage/Intubation, dose end: 13 day
rabbit [6] = details: Sub-acute repeat dose toxicity, new zealand white, Oral, Gavage/Intubation, dose end: 13 day, group: systemic
rat [7] = details: Subchronic dermal toxicity, Topical, dose end: 68 day, group: systemic
rat [8] = details: Subchronic dermal toxicity, sprague dawley, Topical, dose end: 90 day, group: systemic, systemic / pathology microscopic / skin / acanthosis + systemic / pathology microscopic / skin / edema + systemic / pathology microscopic / …
rat [9] = details: Sub-acute dermal toxicity, sprague dawley, Topical, dose end: 2 week, group: systemic
[10] = group: maternal, reproductive / reproductive performance / estrous cycle / length
[11] = group: parental, systemic / in life observation / body weight / body weight gain + systemic / in life observation / clinical signs / salivation + systemic / …
[12] = systemic / in life observation / body weight / body weight gain + systemic / in life observation / clinical signs / salivation
[13] = group: developmental, developmental / developmental malformation / bone / delayed ossification + developmental / developmental malformation / kidney / dilated …
[14] = group: maternal, systemic / in life observation / body weight / body weight + systemic / in life observation / clinical signs / salivation + systemic / in …
[15] = reproductive / reproductive performance / aborted / aborted + systemic / in life observation / body weight / body weight gain + systemic / …
[16] = systemic / in life observation / clinical signs / abnormal feces
[17] = group: maternal, reproductive / reproductive performance / aborted / aborted
[18] = group: systemic, systemic / in life observation / body weight / body weight + systemic / in life observation / clinical signs / abnormal feces + systemic / …
[19] = group: systemic, systemic / in life observation / clinical signs / abnormal feces
[20] = systemic / in life observation / clinical signs / tarry stools
[21] = systemic / in life observation / clinical signs / tarry stools + systemic / in life observation / body weight / body weight + systemic / in …
[22] = systemic / in life observation / clinical signs / [other] + systemic / pathology gross / skin / thickened + systemic / pathology gross / …
[23] = systemic / in life observation / clinical signs / erythema
[24] = systemic / in life observation / clinical signs / erythema + systemic / in life observation / clinical signs / general pallor + systemic / …

`CCOc1cccc(C2(N3CCN(c4ccccc4)CC3)CCC(C)CC2)c1.CS(=O)(=O)O` (configuration not stated) was tested, and the LEL (rat [1]; [10]) was 10 mg/kg/day, the LOAEL (rat [1]; [10]) was over 100 mg/kg/day and the NEL (rat [1]; [10]) was under 10 mg/kg/day. It also gave an NOAEL (rat [1]; [10]) of at least 100 mg/kg/day, an LEL (rat [1]; [11]) of 30 mg/kg/day and an LOAEL (rat [1]; [11]) of over 100 mg/kg/day. It also gave an NEL (rat [1]; [11]) of 10 mg/kg/day, an NOAEL (rat [1]; [11]) of at least 100 mg/kg/day and an LOAEL (rat [2]; [12]) of over 100 mg/kg/day. It also gave an NEL (rat [2]; [12]) of 10 mg/kg/day, an NOAEL (rat [2]; [12]) of at least 100 mg/kg/day and an LEL (rat [2]; systemic / in life observation / clinical signs / salivation) of 30 mg/kg/day. The LEL (rat [3]; [13]) was 60 mg/kg/day, the LOAEL (rat [3]; [13]) was over 125 mg/kg/day and the NOAEL (rat [3]; [13]) was at least 125 mg/kg/day. It also gave an LEL (rat [3]; [14]) of 60 mg/kg/day, an LOAEL (rat [3]; [14]) of over 125 mg/kg/day and an NEL (rat [3]; [14]) of 12 mg/kg/day. For the same molecule, the NOAEL (rat [3]; [14]) was at least 125 mg/kg/day, the LOAEL (rabbit [4]; [15]) was over 300 mg/kg/day and the NOAEL (rabbit [4]; [15]) was at least 300 mg/kg/day. For the same molecule, the LEL (rabbit [4]; [16]) was 15 mg/kg/day, the NEL (rabbit [4]; [16]) was under 15 mg/kg/day and the LEL (rabbit [5]; [17]) was 300 mg/kg/day. It also gave an LOAEL (rabbit [5]; [17]) of over 500 mg/kg/day, an NEL (rabbit [5]; [17]) of 100 mg/kg/day and an NOAEL (rabbit [5]; [17]) of at least 500 mg/kg/day. It also gave an LOAEL (rabbit [5]; [18]) of over 500 mg/kg/day, an NOAEL (rabbit [5]; [18]) of at least 500 mg/kg/day and an LEL (rabbit [5]; [19]) of 100 mg/kg/day. It also gave an NEL (rabbit [5]; [19]) of under 100 mg/kg/day, an LEL (rabbit [6]; [20]) of 100 mg/kg/day and an NEL (rabbit [6]; [20]) of under 100 mg/kg/day. It also gave an LOAEL (rabbit [6]; [21]) of over 1000 mg/kg/day and an NOAEL (rabbit [6]; [21]) of at least 1000 mg/kg/day.

With `CC1(C)COCN1` [4,4-Dimethyloxazolidine] the LEL (rat [7]; systemic / in life observation / clinical signs / [other]) was 19.5 mg/kg/day, the LOAEL (rat [7]; [22]) was 195 mg/kg/day and the NEL (rat [7]; [22]) was 1.95 mg/kg/day. For the same molecule, the NOAEL (rat [7]; [22]) was 19.5 mg/kg/day, the LEL (rat [8]) was 30 mg/kg/day and the LOAEL (rat [8]) was 30 mg/kg/day. For the same molecule, the NEL (rat [8]) was 1 mg/kg/day, the NOAEL (rat [8]) was 1 mg/kg/day and the LEL (rat [9]; [23]) was 10 mg/kg/day. For the same molecule, the LOAEL (rat [9]; [23]) was 10 mg/kg/day, the NEL (rat [9]; [24]) was 1 mg/kg/day and the NOAEL (rat [9]; [24]) was 1 mg/kg/day.

Source: EPA's ToxRefDB 2
